Here are results for 25 compounds from patent US11479550B2, “EP4 antagonist” (ONO PHARMACEUTICAL CO., LTD., priority 2017, dated 2022).

Chain of human EP4 receptor (P35408 whole entry): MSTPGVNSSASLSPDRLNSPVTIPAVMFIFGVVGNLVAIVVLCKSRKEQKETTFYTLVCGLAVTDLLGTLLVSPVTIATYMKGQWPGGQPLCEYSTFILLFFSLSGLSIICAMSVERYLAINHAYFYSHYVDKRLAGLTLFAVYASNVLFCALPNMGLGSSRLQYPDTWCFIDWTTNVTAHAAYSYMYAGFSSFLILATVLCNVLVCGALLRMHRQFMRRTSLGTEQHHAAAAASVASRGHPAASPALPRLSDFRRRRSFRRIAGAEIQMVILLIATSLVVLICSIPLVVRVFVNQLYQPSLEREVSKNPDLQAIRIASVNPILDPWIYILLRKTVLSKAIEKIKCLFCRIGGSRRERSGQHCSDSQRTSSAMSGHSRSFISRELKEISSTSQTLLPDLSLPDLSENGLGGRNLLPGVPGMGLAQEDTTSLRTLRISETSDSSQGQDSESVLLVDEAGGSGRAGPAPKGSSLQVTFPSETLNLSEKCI

For the assay, the target named is human EP4 receptor (Homo sapiens (Human), UniProt P35408). Briefly: EP4 antagonistic activity measurement experiment using prostanoid receptor subtype expressing cells. The class given is cell-based. The conditions noted are these: CHO cells expressing human EP4 receptor; inhibition of cAMP production by PGE2 10 nM; 30 minutes at room temperature. As for the experimental part:
CHO cells expressing human EP4 receptor subtypes were prepared according to the methods of Nishigaki et al. (Non-Patent Literature 4), and used for experiment. Cells cultured to subconfluent were detached, and suspended in an assay medium (MEM containing 1 mmol/L IBMX, 1% HSA) such that a concentration became 1×10^6 cells/mL. For reaction, PGE2 was added to the cell suspension (25 μL) in a final concentration of 10 nmol/L, either alone or as a 25-μL PGE2 solution containing the test compound. After 30 minutes of reaction at room temperature, the amount of cAMP in the cells was quantified according to the method in the descriptions of the cAMP assay kit (CISBIO).
Note here that the antagonistic effect (IC50 value) of the test compound was calculated as a value that represents an inhibition rate against a reaction with PGE2 alone at 10 nM, a concentration that produces a submaximal cAMP producing effect.
`CNC(=O)c1ccc2c(C3CC3)cn(C(C)C(=O)Nc3cc(C#N)ccc3CCCC(=O)O)c2c1` (single isomer, unassigned) [Example 11-23(2), 4-[4-cyano-2-({2-[3-cyclopropyl-6-(methylcarbamoyl)-1H-indol-1-yl]propanoyl}amino)phenyl]butanoic acid] gave an IC50 of 6.5 nM. In the case of `CNC(=O)c1ccc2c(C)cn(C(C)C(=O)Nc3cc(Cn4cc(Cl)cn4)ccc3CCCC(=O)O)c2c1` (stereo not shown) [Example 1-14, 4-{4-[(4-chloro-1H-pyrazol-1-yl)methyl]-2-({2-[3-methyl-6-(methylcarbamoyl)-1H-indol-1-yl]propanoyl}amino)phenyl}butanoic acid] it was 3.3 nM; in that of `Cc1cnn(Cc2ccc(CCCC(=O)O)c(NC(=O)C(C)n3cc(C)c4ccc(C(=O)NCC5CC5)cc43)c2)c1` (single isomer, unassigned) [Example 3-20(2), 4-{2-[(2-{6-[(cyclopropylmethyl)carbamoyl]-3-methyl-1H-indol-1-yl}propanoyl)amino]-4-[(4-methyl-1H-pyrazol-1-yl)methyl]phenyl}butanoic acid], 1.4 nM.

With `COCCNC(=O)c1ccc2ccn(C(C)C(=O)Nc3cc(C#N)ccc3CCCC(=O)O)c2c1` (single isomer, unassigned) [Example 10-1(2), 4-{4-cyano-2-[(2-{6-[(2-methoxyethyl)carbamoyl]-1H-indol-1-yl}propanoyl)amino]phenyl}butanoic acid], the midpoint of inhibition, the IC50, lay at 3.7 nM. For the compound `CNC(=O)c1ccc2c(C)cn(C(C)C(=O)Nc3cc(Oc4ccccc4)ccc3CCCC(=O)O)c2c1` (stereo not shown) [Example 13, 4-[2-({2-[3-methyl-6-(methylcarbamoyl)-1H-indol-1-yl]propanoyl}amino)-4-phenoxyphenyl]butanoic acid], the IC50 was 0.79 nM. The compound `CCCNC(=O)c1ccc2c(C)cn(C(C)C(=O)Nc3cc(Cn4cc(C)cn4)ccc3CCCC(=O)O)c2c1` (single isomer, unassigned) [Example 3-5(2), 4-{2-({2-[3-methyl-6-(propylcarbamoyl)-1H-indol-1-yl]propanoyl}amino)-4-[(4-methyl-1H-pyrazol-1-yl)methyl]phenyl}butanoic acid] showed an IC50 of 2.1 nM.

Consider `Cc1cnn(Cc2ccc(CCCC(=O)O)c(NC(=O)C(C)n3cc(C)c4ccc(C(=O)NC(C)C)cc43)c2)c1` (single isomer, unassigned) [Example 3-7(2), 4-{2-({2-[6-(isopropylcarbamoyl)-3-methyl-1H-indol-1-yl]propanoyl}amino)-4-[(4-methyl-1H-pyrazol-1-yl)methyl]phenyl}butanoic acid], for which the midpoint of inhibition, the IC50, lay at 1.7 nM. The IC50 values of the last two compounds are within 1.5-fold of each other. `CNC(=O)c1ccc2c(C)cn(C(C)C(=O)Nc3cc(-c4nnc(C)o4)ccc3CCCC(=O)O)c2c1` (single isomer, unassigned) [Example 15-1(2), 4-[2-({2-[3-methyl-6-(methylcarbamoyl)-1H-indol-1-yl]propanoyl}amino)-4-(5-methyl-1,3,4-oxadiazol-2-yl)phenyl]butanoic acid] returned an IC50 of 6.4 nM. Compound `Cc1cn(C(C)C(=O)Nc2cc(C#N)ccc2CCCC(=O)O)c2cc(C(=O)NC(C)(C)C)ccc12` (single isomer, unassigned) [Example 11-7(2), 4-{4-cyano-2-[(2-{3-methyl-6-[(2-methyl-2-propanyl)carbamoyl]-1H-indol-1-yl}propanoyl)amino]phenyl}butanoic acid] had an IC50 of 1.6 nM. The same measure for `COCCNC(=O)c1ccc2c(C)cn(C(C)C(=O)Nc3cc(F)ccc3CCCC(=O)O)c2c1` (single isomer, unassigned) [Example 11-30(2), 4-{4-fluoro-2-[(2-{6-[(2-methoxyethyl)carbamoyl]-3-methyl-1H-indol-1-yl}propanoyl)amino]phenyl}butanoic acid]: 12 nM; for `CNC(=O)c1ccc2c(C)cn(C(C)C(=O)Nc3cc(Cn4cc(C)cn4)ccc3CCCC(=O)O)c2c1` (single isomer, unassigned) [Example 12-1(2), 4-{2-({2-[3-methyl-6-(methylcarbamoyl)-1H-indol-1-yl]propanoyl}amino)-4-[(4-methyl-1H-pyrazol-1-yl)methyl]phenyl}butanoic acid]: 1.6 nM.

In the case of `Cc1cn(C(C)C(=O)Nc2cc(C#N)ccc2CCCC(=O)O)c2cc(C(=O)NCc3ccccc3)ccc12` (stereo not shown) [Example 11-8, 4-[2-({2-[6-(benzylcarbamoyl)-3-methyl-1H-indol-1-yl]propanoyl}amino)-4-cyanophenyl]butanoic acid], the IC50 turned out to be 4 nM. This IC50 lies about 2.5-fold higher than the previous one. In the case of `CCNC(=O)c1ccc2c(C)cn(C(C)C(=O)Nc3cc(Cn4cc(C)cn4)ccc3CCCC(=O)O)c2c1` (single isomer, unassigned) [Example 3-3(2), 4-{2-({2-[6-(ethylcarbamoyl)-3-methyl-1H-indol-1-yl]propanoyl}amino)-4-[(4-methyl-1H-pyrazol-1-yl)methyl]phenyl}butanoic acid] it was 0.9 nM; in that of `CCNC(=O)c1ccc2c(C)cn([C@H](C)C(=O)Nc3cc(C#N)ccc3CCCC(=O)O)c2c1` [Example 11-1(2)], 1.3 nM; in that of `CNC(=O)c1ccc2c(C)cn(C(C)C(=O)Nc3cc(Cn4cc(C(C)C)nn4)ccc3CCCC(=O)O)c2c1` (single isomer, unassigned) [Example 6-5(1), 4-{4-[(4-isopropyl-1H-1,2,3-triazol-1-yl)methyl]-2-({2-[3-methyl-6-(methylcarbamoyl)-1H-indol-1-yl]propanoyl}amino)phenyl}butanoic acid], 2.7 nM. With `Cc1cnn(Cc2ccc(CCCC(=O)O)c(NC(=O)C(C)n3cc(C)c4cc(C(=O)NC(C)C)ccc43)c2)c1` (single isomer, unassigned) [Example 8-9(2), 4-{2-({2-[5-(isopropylcarbamoyl)-3-methyl-1H-indol-1-yl]propanoyl}amino)-4-[(4-methyl-1H-pyrazol-1-yl)methyl]phenyl}butanoic acid], the IC50 came to 3.3 nM.

For the compound `CNC(=O)c1ccc2c(C3CC3)cn(C(C)C(=O)Nc3cc(Cn4cc(C)cn4)ccc3CCCC(=O)O)c2c1` (single isomer, unassigned) [Example 9-1(2), 4-{2-({2-[3-cyclopropyl-6-(methylcarbamoyl)-1H-indol-1-yl]propanoyl}amino)-4-[(4-methyl-1H-pyrazol-1-yl)methyl]phenyl}butanoic acid], the IC50 turned out to be 4.6 nM.

Regarding `CNC(=O)c1ccc2c(C)cn(C(C)C(=O)Nc3cc(C#N)ccc3CCCC(=O)O)c2c1` (single isomer, unassigned) [Example 11-3(2), 4-[4-cyano-2-({2-[3-methyl-6-(methylcarbamoyl)-1H-indol-1-yl]propanoyl}amino)phenyl]butanoic acid], the IC50 is 2.7 nM. The same measure for `CNC(=O)c1ccc2c(C)cn(C(C)C(=O)Nc3cc(Cn4cnc(C5CC5)n4)ccc3CCCC(=O)O)c2c1` (single isomer, unassigned) [Example 4-1(2), 4-{4-[(3-cyclopropyl-1H-1,2,4-triazol-1-yl)methyl]-2-({2-[3-methyl-6-(methylcarbamoyl)-1H-indol-1-yl]propanoyl}amino)phenyl}butanoic acid]: 2.5 nM. Compound `COCCNC(=O)c1ccc2c(C3CC3)cn(C(C)C(=O)Nc3cc(C#N)ccc3CCCC(=O)O)c2c1` (single isomer, unassigned) [Example 11-25(2), 4-{4-cyano-2-[(2-{3-cyclopropyl-6-[(2-methoxyethyl)carbamoyl]-1H-indol-1-yl}propanoyl)amino]phenyl}butanoic acid] had an IC50 of 0.57 nM.

The compound `Cc1cnn(Cc2ccc(CCCC(=O)O)c(NC(=O)C(C)n3cc(C)c4ccc(C(=O)N(C)C)cc43)c2)c1` (single isomer, unassigned) [Example 3-11(2), 4-{2-({2-[6-(dimethylcarbamoyl)-3-methyl-1H-indol-1-yl]propanoyl}amino)-4-[(4-methyl-1H-pyrazol-1-yl)methyl]phenyl}butanoic acid] had an IC50 of 4.6 nM.

The compound `CNC(=O)c1ccc2c(C)cn(C(C)C(=O)Nc3cc(Cn4nc(C)cc4C(F)(F)F)ccc3CCCC(=O)O)c2c1` (single isomer, unassigned) [Example 2-27(4), 4-[2-({2-[3-methyl-6-(methylcarbamoyl)-1H-indol-1-yl]propanoyl}amino)-4-{[3-methyl-5-(trifluoromethyl)-1H-pyrazol-1-yl]methyl}phenyl]butanoic acid] displayed an IC50 of 1.8 nM.

For `CNC(=O)c1ccc2c(C)cn(C(C)C(=O)Nc3cc(COc4cc(C)nc(C)c4)ccc3CCCC(=O)O)c2c1` (stereo not shown) [Example 1-5, 4-[4-{[(2,6-dimethyl-4-pyridinyl)oxy]methyl}-2-({2-[3-methyl-6-(methylcarbamoyl)-1H-indol-1-yl]propanoyl}amino)phenyl]butanoic acid], the IC50 stood at 4.9 nM. With `CNC(=O)c1ccc2c(C)cn(C(C)C(=O)Nc3cc(Cn4cc(F)cn4)ccc3CCCC(=O)O)c2c1` (single isomer, unassigned) [Example 4-8(2), 4-{4-[(4-fluoro-1H-pyrazol-1-yl)methyl]-2-({2-[3-methyl-6-(methylcarbamoyl)-1H-indol-1-yl]propanoyl}amino)phenyl}butanoic acid], 2.7 nM corresponded to half-maximal inhibition (IC50). In the case of `CC(C(=O)Nc1cc(C#N)ccc1CCCC(=O)O)c1c[nH]c2ccccc12` (stereo not shown) [4-[4-cyano-2-[2-(indol-3-yl)propanoylamino]phenyl]butanoic acid, reference compound] it was 360 nM.
